# Source: PubChem BioAssay AID1963971 (Molecular Pharmacology Branch, DTP, NCI, 2024)
# Test system: 953936-095-R-J2-PDC spheroids with HUVEC/MSC, viability
# Assay: Anticancer human tumor 953936-095-R-J2-PDC patient-derived cervical squamous cell carcinoma cell line growth inhibition [PI3K]
# Details: for IC50: curve of first compound; for viability, T/C: stronger effect = lower value
# Text: Combinatorial screen of targeted agents with the PI3K inhibitors inavolisib, alpelisib, duvelisib, and copanlisib in multi-cell type tumor spheroids
# A high-throughput screen of multi-cell type tumor spheroids was designed to identify active combinations of targeted small molecules and PI3K pathway inhibitors. Complex spheroids include a stromal component modeled by human endothelial cells (HUVEC) and fibroblasts modeled by human mesenchymal stem cells (MSCs). The concentration ranges selected for each drug and investigational agent were based upon clinically achievable concentrations if the clinical Cmax of the agent was known.
# Compounds. The drugs and investigational agents: inavolisib (NSC800729), alpelisib (NSC765974), duvelisib (NSC772469), copanlisib (NSC816437), ipatasertib (NSC767898), afuresertib (NSC778305), talazoparib (NSC767125), sapanisertib (NSC764658), selumetinib (NSC741078), tovorafenib (DAY101, NSC766906), vemurafenib (NSC761431), ravoxertinib (NSC781343), sotorasib (NSC818433), MRTX1133 (NSC 836407), abemaciclib (NSC 768073), palbociclib (NSC758247), venetoclax (NSC 766270), SY5609 (NSC837396), enzalutamide (NSC755605), and darolutamide (NSC825331), were obtained from the National Cancer Institute (NCI) Developmental Therapeutics Program Chemical Repository. The FDA-approved anticancer drug set is available from the NCI Developmental Therapeutics Program. […] The stock solutions were prepared in dimethyl sulfoxide (DMSO, Sigma-Aldrich, St. Louis, MO, cat. D2650) at 800-fold the tested concentration and stored at -70 degrees C prior to their use. All drugs and investigational agents were tested over a range starting from a high concentration at or near the clinical Cmax and decreasing in half-log increments. If the clinical Cmax for an agent had not been determined, the highest concentration tested was 10 microM.
# Cell Culture. All cells were maintained in an incubator at 37 degrees C and 5% CO2 with 95% humidity. The PDC lines were cultured according to standard operating procedures established by the NCI PDMR (https://pdmr.cancer.gov/sops/default.htm). All PDCs were thawed and cultured in Matrigel-coated flasks prepared with a working solution of 1X Ham's F-12 nutrient mix, without supplementation (Invitrogen, Waltham, MA, cat. 11765054), 100 U/mL penicillin-streptomycin (Invitrogen, cat. 15140122), and 2.5% Matrigel (Corning Inc., Corning, NY, cat. 354248) for the first three passages. The 354836-022-R-J1-PDC, 475296-252-R-J1-PDC, and 997726-040-R-J2-PDC lines were cultured in 6A media, which includes advanced DMEM/F-12 (Thermo Fisher Scientific, cat. 12634028), 10 mM HEPES (Thermo Fisher Scientific, cat. 15630080), 1X GlutaMAX supplement (Thermo Fisher Scientific, cat. 35050061), 0.1 mg/mL primocin (InvivoGen, San Diego, CA, cat. ant-pm-2), 10% defined fetal bovine serum, heat inactivated (HyClone Laboratories Inc., Logan, UT, cat. SH30070.03HI), 50% L-WRN conditioned media (ATCC, cat. CRL-3276), 1.25 mM N-Acetyl-L-cysteine (Sigma-Aldrich, cat. A9165), 10 mM nicotinamide (Sigma-Aldrich, cat. N0636), 1X B-27 supplement (Thermo Fisher Scientific, cat. 17504044), 1X N-2 supplement (Thermo Fisher Scientific, cat. 17502048), and 10 microM Y-27632 dihydrochloride (Tocris Bioscience, Bristol, United Kingdom, cat. 1254). The 624824-186-R-J2-PDC line was cultured in 6C/Colon 1B media, which includes all 6A media components plus 50 ng/mL human EGF recombinant protein (Thermo Fisher Scientific, cat. PHG0311). […]
# [1] = second compound 0.00316 µM, first compound 0.0316 µM
# [2] = second compound 0.00316 µM, first compound 0.1 µM
# [3] = second compound 0.00316 µM, first compound 0.316 µM
# [4] = second compound 0.00316 µM, first compound 1 µM
# [5] = second compound 0.01 µM, first compound 0.0316 µM
# [6] = second compound 0.01 µM, first compound 0.1 µM
# [7] = second compound 0.01 µM, first compound 0.316 µM
# [8] = second compound 0.01 µM, first compound 1 µM
# [9] = second compound 0.0316 µM, first compound 0.0316 µM
# [10] = second compound 0.0316 µM, first compound 0.1 µM
# [11] = second compound 0.0316 µM, first compound 0.316 µM
# [12] = second compound 0.0316 µM, first compound 1 µM
# [13] = second compound 0.1 µM, first compound 0.0316 µM
# [14] = second compound 0.1 µM, first compound 0.1 µM
# [15] = second compound 0.1 µM, first compound 0.316 µM
# [16] = second compound 0.1 µM, first compound 1 µM
# [17] = second compound 0.316 µM, first compound 0.0316 µM
# [18] = second compound 0.316 µM, first compound 0.1 µM
# [19] = second compound 0.316 µM, first compound 0.316 µM
# [20] = second compound 0.316 µM, first compound 1 µM
# [21] = second compound 1 µM, first compound 0.0316 µM
# [22] = second compound 1 µM, first compound 0.1 µM
# [23] = second compound 1 µM, first compound 0.316 µM
# [24] = second compound 1 µM, first compound 1 µM
# [25] = second compound 0.00316 µM, first compound 0.00316 µM
# [26] = second compound 0.00316 µM, first compound 0.01 µM
# [27] = second compound 0.01 µM, first compound 0.00316 µM
# [28] = second compound 0.01 µM, first compound 0.01 µM
# [29] = second compound 0.0316 µM, first compound 0.00316 µM
# [30] = second compound 0.0316 µM, first compound 0.01 µM
# [31] = second compound 0.1 µM, first compound 0.00316 µM
# [32] = second compound 0.1 µM, first compound 0.01 µM
# [33] = second compound 0.316 µM, first compound 0.00316 µM
# [34] = second compound 0.316 µM, first compound 0.01 µM
# [35] = second compound 1 µM, first compound 0.00316 µM
# [36] = second compound 1 µM, first compound 0.01 µM
# 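Further: spheroids exposed to compounds for seven days before read-out.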
smiles,measurement,setting,value
CC(C)NCC(C(=O)N1CCN(c2ncnc3c2C(C)CC3O)CC1)c1ccc(Cl)cc1 (stereo unspecified) + CC(Nc1ccc2c(c1)OCCn1cc(N3C(=O)OCC3C(F)F)nc1-2)C(N)=O,IC50,second compound 0.00316 µM,890 nM
same,IC50,second compound 0.01 µM,865 nM
same,IC50,second compound 0.0316 µM,640 nM
same,IC50,second compound 0.1 µM,176 nM
same,IC50,second compound 0.316 µM,< 31.6 nM
same,IC50,second compound 1 µM,< 31.6 nM
same,"viability, T/C",[1],89.5%
same,"viability, T/C",[2],88.2%
same,"viability, T/C",[3],73.9%
same,"viability, T/C",[4],48%
same,"viability, T/C","second compound 0.00316 µM, first compound 3.16 µM",22.5%
same,"viability, T/C","second compound 0.00316 µM, first compound 10 µM",15.1%
same,"viability, T/C",[5],87%
same,"viability, T/C",[6],86.1%
same,"viability, T/C",[7],71.3%
same,"viability, T/C",[8],48.3%
same,"viability, T/C","second compound 0.01 µM, first compound 3.16 µM",20.9%
same,"viability, T/C","second compound 0.01 µM, first compound 10 µM",14.1%
same,"viability, T/C",[9],79.1%
same,"viability, T/C",[10],76%
same,"viability, T/C",[11],63.5%
same,"viability, T/C",[12],42%
same,"viability, T/C","second compound 0.0316 µM, first compound 3.16 µM",18.4%
same,"viability, T/C","second compound 0.0316 µM, first compound 10 µM",11.4%
same,"viability, T/C",[13],57.2%
same,"viability, T/C",[14],55%
same,"viability, T/C",[15],45.5%
same,"viability, T/C",[16],31.2%
same,"viability, T/C","second compound 0.1 µM, first compound 3.16 µM",18.6%
same,"viability, T/C","second compound 0.1 µM, first compound 10 µM",9.8%
same,"viability, T/C",[17],35.8%
same,"viability, T/C",[18],33.9%
same,"viability, T/C",[19],30.6%
same,"viability, T/C",[20],23.6%
same,"viability, T/C","second compound 0.316 µM, first compound 3.16 µM",13%
same,"viability, T/C","second compound 0.316 µM, first compound 10 µM",9.25%
same,"viability, T/C",[21],23%
same,"viability, T/C",[22],22.3%
same,"viability, T/C",[23],19.3%
same,"viability, T/C",[24],15.4%
same,"viability, T/C","second compound 1 µM, first compound 3.16 µM",14%
same,"viability, T/C","second compound 1 µM, first compound 10 µM",7.62%
CCN1CCN(Cc2ccc(Nc3ncc(F)c(-c4cc(F)c5nc(C)n(C(C)C)c5c4)n3)nc2)CC1 + CC(Nc1ccc2c(c1)OCCn1cc(N3C(=O)OCC3C(F)F)nc1-2)C(N)=O,IC50,second compound 0.00316 µM,> 1000 nM
same,IC50,second compound 0.01 µM,> 1000 nM
same,IC50,second compound 0.0316 µM,> 1000 nM
same,IC50,second compound 0.1 µM,64.4 nM
same,IC50,second compound 0.316 µM,< 3.16 nM
same,IC50,second compound 1 µM,< 3.16 nM
same,"viability, T/C",[25],102%
same,"viability, T/C",[26],98.5%
same,"viability, T/C",[1],94.6%
same,"viability, T/C",[2],96.6%
same,"viability, T/C",[3],89.8%
same,"viability, T/C",[4],80.7%
same,"viability, T/C",[27],93%
same,"viability, T/C",[28],104%
same,"viability, T/C",[5],94.2%
same,"viability, T/C",[6],83.3%
same,"viability, T/C",[7],80%
same,"viability, T/C",[8],79.3%
same,"viability, T/C",[29],73%
same,"viability, T/C",[30],79.7%
same,"viability, T/C",[9],72.5%
same,"viability, T/C",[10],75.8%
same,"viability, T/C",[11],63.8%
same,"viability, T/C",[12],72.2%
same,"viability, T/C",[31],58.4%
same,"viability, T/C",[32],53.8%
same,"viability, T/C",[13],53.5%
same,"viability, T/C",[14],47.9%
same,"viability, T/C",[15],45.8%
same,"viability, T/C",[16],48.5%
same,"viability, T/C",[33],34.8%
same,"viability, T/C",[34],36%
same,"viability, T/C",[17],31.1%
same,"viability, T/C",[18],32.3%
same,"viability, T/C",[19],27.6%
same,"viability, T/C",[20],29.4%
same,"viability, T/C",[35],22%
same,"viability, T/C",[36],21.5%
same,"viability, T/C",[21],22.7%
same,"viability, T/C",[22],18.8%
same,"viability, T/C",[23],18.4%
same,"viability, T/C",[24],24.7%
Cn1ncnc1[C@H]1c2n[nH]c(=O)c3cc(F)cc(c23)N[C@@H]1c1ccc(F)cc1 + CC(Nc1ccc2c(c1)OCCn1cc(N3C(=O)OCC3C(F)F)nc1-2)C(N)=O,IC50,second compound 0.00316 µM,> 100 nM
same,IC50,second compound 0.01 µM,> 100 nM
same,IC50,second compound 0.0316 µM,> 100 nM
same,IC50,second compound 0.1 µM,> 100 nM
same,IC50,second compound 0.316 µM,< 0.316 nM
same,IC50,second compound 1 µM,< 0.316 nM
same,"viability, T/C","second compound 0.00316 µM, first compound 0.000316 µM",99.8%
same,"viability, T/C","second compound 0.00316 µM, first compound 0.001 µM",104%
same,"viability, T/C",[25],105%
same,"viability, T/C",[26],100%
same,"viability, T/C",[1],98.9%
same,"viability, T/C",[2],91.7%
same,"viability, T/C","second compound 0.01 µM, first compound 0.000316 µM",103%
same,"viability, T/C","second compound 0.01 µM, first compound 0.001 µM",106%
same,"viability, T/C",[27],88.1%
same,"viability, T/C",[28],94.2%
same,"viability, T/C",[5],95%
same,"viability, T/C",[6],86.2%
same,"viability, T/C","second compound 0.0316 µM, first compound 0.000316 µM",80%
same,"viability, T/C","second compound 0.0316 µM, first compound 0.001 µM",79%
same,"viability, T/C",[29],77.5%
same,"viability, T/C",[30],79.9%
same,"viability, T/C",[9],80.2%
same,"viability, T/C",[10],74.2%
same,"viability, T/C","second compound 0.1 µM, first compound 0.000316 µM",58.8%
same,"viability, T/C","second compound 0.1 µM, first compound 0.001 µM",56%
same,"viability, T/C",[31],60.4%
same,"viability, T/C",[32],57.9%
same,"viability, T/C",[13],54.8%
same,"viability, T/C",[14],50.8%
same,"viability, T/C","second compound 0.316 µM, first compound 0.000316 µM",34.3%
same,"viability, T/C","second compound 0.316 µM, first compound 0.001 µM",35.9%
same,"viability, T/C",[33],35.3%
same,"viability, T/C",[34],33.9%
same,"viability, T/C",[17],34%
same,"viability, T/C",[18],33%
same,"viability, T/C","second compound 1 µM, first compound 0.000316 µM",23.3%
same,"viability, T/C","second compound 1 µM, first compound 0.001 µM",23.3%
same,"viability, T/C",[35],22.2%
same,"viability, T/C",[36],23.7%
same,"viability, T/C",[21],23%
same,"viability, T/C",[22],24.4%
